Consider four compounds from PubChem BioAssay AID2060906 (Molecular Pharmacology Branch, DTP, NCI, 2025).

“And” between values parts separate entries of the source, which are not always exact repeats. Equal entries are not always repeated.

The subject of this test is 485176-168-R4-J1-PDC complex spheroid growth. The experiment in a line: Anticancer human tumor 485176-168-R4-J1-PDC patient-derived pancreatic adenocarcinoma cell line growth inhibition [RAS]. As to conditions: for viability, T/C: stronger effect = lower value. In short, it runs like this: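 Multi-cell-type spheroids: tumor cells plus HUVEC endothelial cells and mesenchymal stem cells. RAS-pathway inhibitors were combined with targeted agents, each dosed in half-log steps down from clinical Cmax, or from 10 microM when Cmax was unknown.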

[1] abbreviates: curve of first compound, second compound 0.000949 µM.
Setting [2] is: curve of first compound, second compound 0.003 µM.
The mark [3] stands for this setting: curve of first compound, second compound 0.00949 µM.
Setting [4] is: curve of first compound, second compound 0.03 µM.
The mark [5] stands for this setting: curve of first compound, second compound 0.0949 µM.
[6] abbreviates: curve of first compound, second compound 0.3 µM.
Setting [7] is: second compound 0.000949 µM, first compound 0.0316 µM.
[8] abbreviates: second compound 0.000949 µM, first compound 0.1 µM.
The mark [9] stands for this setting: second compound 0.000949 µM, first compound 0.316 µM.
[10] abbreviates: second compound 0.000949 µM, first compound 1 µM.
[11] abbreviates: second compound 0.003 µM, first compound 0.0316 µM.
Setting [12] is: second compound 0.003 µM, first compound 0.1 µM.
[13] abbreviates: second compound 0.003 µM, first compound 0.316 µM.
[14] abbreviates: second compound 0.003 µM, first compound 1 µM.
Setting [15] is: second compound 0.00949 µM, first compound 0.0316 µM.
Setting [16] is: second compound 0.00949 µM, first compound 0.1 µM.
The mark [17] stands for this setting: second compound 0.00949 µM, first compound 0.316 µM.
Where [18] appears, read: second compound 0.00949 µM, first compound 1 µM.
The mark [19] stands for this setting: second compound 0.03 µM, first compound 0.0316 µM.
Where [20] appears, read: second compound 0.03 µM, first compound 0.1 µM.
Where [21] appears, read: second compound 0.03 µM, first compound 0.316 µM.
Setting [22] is: second compound 0.03 µM, first compound 1 µM.
Where [23] appears, read: second compound 0.0949 µM, first compound 0.0316 µM.
The mark [24] stands for this setting: second compound 0.0949 µM, first compound 0.1 µM.
The mark [25] stands for this setting: second compound 0.0949 µM, first compound 0.316 µM.
[26] abbreviates: second compound 0.0949 µM, first compound 1 µM.
[27] abbreviates: second compound 0.3 µM, first compound 0.0316 µM.
[28] abbreviates: second compound 0.3 µM, first compound 0.1 µM.
[29] abbreviates: second compound 0.3 µM, first compound 0.316 µM.
[30] abbreviates: second compound 0.3 µM, first compound 1 µM.
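Also: spheroids exposed to compounds for seven days before readout.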
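For viability, T/C in this document: luminescence viability expressed relative to DMSO vehicle wells set as 100%.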

With `CCC(CC)c1cc(NC2CCC(N)C2)n2nccc2n1` (centres undefined) + CCn1c(-c2cc(N3CCN(C)CC3)cnc2C(C)OC)c2c3cc(ccc31)-c1csc(n1)CC(NC(=O)C1CC1C)C(=O)N1CCCC(N1)C(=O)OCC(C)(C)C2, the IC50 by setting is: under setting [1], 1130 nM; under setting [2], 1260 nM; under setting [3], 1070 nM; under setting [4], 925 nM; under setting [5], 1040 nM; under setting [6], 1000 nM. For the same compound, the viability, T/C by setting is: under setting [7], 92.1%; under setting [8], 83.7%; under setting [9], 84.7%; under setting [10], 55.9%; (second compound 0.000949 µM, first compound 3.16 µM) 1.96%; (second compound 0.000949 µM, first compound 10 µM) 0.46%. Besides, the viability, T/C is 94.5% under setting [11]; 94.3% under setting [12]; 100% under setting [13]; 62.4% under setting [14]; 1.91% (second compound 0.003 µM, first compound 3.16 µM); 0.43% (second compound 0.003 µM, first compound 10 µM). Besides, the viability, T/C is, setting by setting: under setting [15], 106%; under setting [16], 78.7%; under setting [17], 89.1%; under setting [18], 53.4%; (second compound 0.00949 µM, first compound 3.16 µM) 1.09%; (second compound 0.00949 µM, first compound 10 µM) 0.36%. For the same compound, the viability, T/C by setting is: under setting [19], 83.6%; under setting [20], 84.1%; under setting [21], 82.8%; under setting [22], 47.6%; (second compound 0.03 µM, first compound 3.16 µM) 1.14%; (second compound 0.03 µM, first compound 10 µM) 0.38%. Moreover, the viability, T/C is 77.5% under setting [23]; 89% under setting [24]; 68.5% under setting [25]; 53% under setting [26]; 0.88% (second compound 0.0949 µM, first compound 3.16 µM); 0.45% (second compound 0.0949 µM, first compound 10 µM). Further, the viability, T/C reads like this: under setting [27], 81.4%; under setting [28], 70%; under setting [29], 71.7%; under setting [30], 50.1%; (second compound 0.3 µM, first compound 3.16 µM) 0.86%; (second compound 0.3 µM, first compound 10 µM) 0.45%.

In the case of `CC1(C)CCC(Nc2ncc(C(F)(F)F)c(-c3c[nH]c4c(P(C)(C)=O)c(C#N)ccc34)n2)CN1` (centres undefined), the viability, T/C is 110% (2×) and 103% and 111% (compound 0.000949 µM); 90.3% [middle of 4 runs] (compound 0.003 µM); 77.3% [middle of 4 runs] (compound 0.00949 µM); 62.6% [middle of 4 runs] (compound 0.03 µM); 50.2% [middle of 4 runs] (compound 0.0949 µM); 49.1% [middle of 4 runs] (compound 0.3 µM).

On to `C=CC(=O)N1CCN(c2nc(OCC3CCCN3C)nc3c(F)c(-c4nc(N)cc(C)c4C(F)(F)F)c(Cl)cc23)C(C)C1` (centres undefined) + CCn1c(-c2cc(N3CCN(C)CC3)cnc2C(C)OC)c2c3cc(ccc31)-c1csc(n1)CC(NC(=O)C1CC1C)C(=O)N1CCCC(N1)C(=O)OCC(C)(C)C2, for which the IC50 runs as follows: under setting [1], over 1000 nM; under setting [2], over 1000 nM; under setting [3], over 1000 nM; under setting [4], over 1000 nM; under setting [5], over 1000 nM; under setting [6], over 1000 nM. The viability, T/C by setting is: (second compound 0.000949 µM, first compound 0.00316 µM) 95.4%; (second compound 0.000949 µM, first compound 0.01 µM) 86.6%; under setting [7], 100%; under setting [8], 109%; under setting [9], 114%; under setting [10], 99%. Moreover, the viability, T/C was 85.3% (second compound 0.003 µM, first compound 0.00316 µM); 89.7% (second compound 0.003 µM, first compound 0.01 µM); 87.4% under setting [11]; 103% under setting [12]; 101% under setting [13]; 97.2% under setting [14]. For the same compound, the viability, T/C runs as follows: (second compound 0.00949 µM, first compound 0.00316 µM) 89.3%; (second compound 0.00949 µM, first compound 0.01 µM) 88.5%; under setting [15], 96.5%; under setting [16], 108%; under setting [17], 91.7%; under setting [18], 114%. Moreover, the viability, T/C runs as follows: (second compound 0.03 µM, first compound 0.00316 µM) 95.5%; (second compound 0.03 µM, first compound 0.01 µM) 97%; under setting [19], 77.2%; under setting [20], 79.7%; under setting [21], 87.6%; under setting [22], 87.8%. Also, the viability, T/C is, setting by setting: (second compound 0.0949 µM, first compound 0.00316 µM) 84.4%; (second compound 0.0949 µM, first compound 0.01 µM) 105%; under setting [23], 80.4%; under setting [24], 80.7%; under setting [25], 76.1%; under setting [26], 81.6%. The viability, T/C was 72.9% (second compound 0.3 µM, first compound 0.00316 µM); 72.8% (second compound 0.3 µM, first compound 0.01 µM); 82% under setting [27]; 76.6% under setting [28]; 91.8% under setting [29]; 69.3% under setting [30].

As to `CCn1c(-c2cc(N3CCN(C)CC3)cnc2C(C)OC)c2c3cc(ccc31)-c1csc(n1)CC(NC(=O)C1CC1C)C(=O)N1CCCC(N1)C(=O)OCC(C)(C)C2` (centres undefined), the viability, T/C was 102% [middle of 8 runs] (compound 0.000949 µM), 102% [middle of 8 runs] (compound 0.003 µM) and 92.2% [middle of 8 runs] (compound 0.00949 µM). In addition, the IC50 (compound alone, run of 05/20/2024) was over 300 nM.
